Results as given in patent publication EP3985010A1, “SPIROCYCLIC INHIBITORS OF HEPATITIS B VIRUS” (priority 2020, dated 2022).

tested on: HBV; assay: Anti-HBV activity in vitro: quantification of extracellular HBV DNA by direct qPCR in HepAD38 cells; type: cell-based; conditions: Hepatitis B virus, doxycycline-free medium, 96 hours at 37°C, 8-point dose-response curve, read-out: HBV inh EC50
Text: HepAD38 cell line (Ladner et al., Antimicrob Agents Chemother, 1997, 41, 1715-20) was used for HBV inhibition assays. HepAD38 is a subclone, derived from hepatoblastoma cell line HepG2 (ATCC® Number: HB-8065™), that expresses HBV genome under the transcriptional control of a tetracycline-responsive promoter in a TET-OFF system: addition of doxycycline, an antibiotic belonging to the class of tetracycline, suppresses HBV replication, while its removal switches on the process allowing HBV viral particles release in the cell supernatant. HepAD38 cell line is maintained in DMEM/F12, supplemented with 10% of fetal bovine serum, 1% of glutamine, 1% of penicillin/streptomycin, 0.4 mg/ml G418 and 0,3 ug/ml tetracycline. For the HBV inhibition assay, doxycycline-free medium is used in order to allow virion production.
HBV inhibition activity in vitro was performed in 96 multiwell plates. During the initial (primary) screening, compounds were first tested in triplicates at concentrations of 0.02 µM, 0.1µM, 0.5µM and 1µM. For selected compounds, an 8-point dose-response curve was obtained using 1:2 serial dilutions (starting from 0.01µM, 0.1µM, 0.4µM or 5 µM, depending on the degree of inhibition observed during the primary screening). From the dose-response curves, half maximal effective concentration (EC50) could be calculated (see also below).
In more detail, compounds - typically dissolved in DMSO stock solutions - were diluted to 2x the final desired concentration in 100 µl of the above medium (without doxycycline) and plated in three replicates in the 96-well plates.
Simultaneously, HepAD38 cells - extensively pre-washed in doxycycline-free medium in order to induce HBV production - were suspended at 2^∗10^4 cells in 100 µl of doxycycline-free medium and added to each well of the plate, to yield a final assay volume of 200 µl DMSO - used for stock solutions and compounds dilutions - which was always present in the assays at a final concentration of 0.5%.
Plates were then incubated 96 hours at 37°C and then subjected to cell viability assays and extracellular HBV quantification, in order to evaluate both the cytotoxic potential and the antiviral activity of compounds. Cytotoxicity was assessed by a commercial fluorescence assay that measures the metabolic activity of cells, directly related to cell viability (Cell Titer Blue, Promega). Anti-HBV activity was evaluated by quantification of extracellular HBV DNA with direct qPCR. In particular, supernatant was collected and centrifuged for cell debris clarification, viral DNA was extracted from virions by addition of lysis buffer (1 mM 1,4-dithiothreitol, 0.2% sodium dodecyl sulphate) and incubated at 95°C for 10 min. Samples were then diluted 1:40 and real time PCR amplification was performed with SYBR green assay (Power SYBR™ Green PCR Master Mix-Thermo Fisher Scientific) and specific HBV primer (HBV-DF:5'-[…]-3' (SEQ ID No. 1), HBV-DR:5'-[…]-3' (SEQ ID No. 2)).
Antiviral activity data for each compound are reported as EC50 value (see Table 1 legend). Excel and Graphpad Prism programs are typically used for data elaboration and EC50 calculation.

Row | Structure (SMILES) | EC50 [nM]
1 | C[C@@H](NC(=O)C(=O)N1CCC2(CC1)COc1c(cn(C)c1C(=O)Nc1ccc(F)c(C(F)F)c1)S(=O)(=O)N2)C(F)(F)F [Example E8, (R)-N-(3-(difluoromethyl)-4-fluorophenyl)-7'-methyl-1-(2-oxo-2-((1,1,1-trifluoropropan-2-yl)amino)acetyl)-2'H,4'H,7'H-spiro[piperidine-4,3'-pyrrolo[3,4-b][1,4,5]oxathiazepine]-6'-carboxamide 1',1'-dioxide] | < 500
2 | Cn1cc2c(c1C(=O)Nc1ccc(F)c(Cl)c1)OC[C@]1(CCN(C(=O)C(=O)NCC(F)(F)F)C1)NS2(=O)=O [Example E20, (R)-N-(3-chloro-4-fluorophenyl)-7'-methyl-1-(2-oxo-2-((2,2,2-trifluoroethyl)amino)acetyl)-2'H,4'H,7'H-spiro[pyrrolidine-3,3'-pyrrolo[3,4-b][1,4,5]oxathiazepine]-6'-carboxamide 1',1'-dioxide] | < 500
3 | C[C@@H](NC(=O)C(=O)N1CC[C@@]2(COc3c(cn(C)c3C(=O)Nc3ccc(F)c(C(F)F)c3)S(=O)(=O)N2)C1)C(F)(F)F [Example E11, (S)-N-(3-(difluoromethyl)-4-fluorophenyl)-7'-methyl-1-(2-oxo-2-(((R)-1,1,1-trifluoropropan-2-yl)amino)acetyl)-2'H,4'H,7'H-spiro[pyrrolidine-3,3'-pyrrolo[3,4-b][1,4,5]oxathiazepine]-6'-carboxamide 1',1'-dioxide] | < 500
4 | Cn1cc2c(c1C(=O)Nc1ccc(F)c(Cl)c1)OC[C@]1(CCN(C(=O)C(=O)NC(C)(C)C(F)(F)F)C1)NS2(=O)=O [Example E21, (R)-N-(3-chloro-4-fluorophenyl)-7'-methyl-1-(2-oxo-2-((1,1,1-trifluoro-2-methylpropan-2-yl)amino)acetyl)-2'H,4'H,7'H-spiro[pyrrolidine-3,3'-pyrrolo[3,4-b][1,4,5]oxathiazepine]-6'-carboxamide 1',1'-dioxide] | < 500
5 | C[C@@H](NC(=O)C(=O)N1CC[C@]2(COc3c(c(Cl)n(C)c3C(=O)Nc3ccc(F)c(Cl)c3)S(=O)(=O)N2)C1)C(F)(F)F (stereo in doubt) [Example E33, (R)-8'-chloro-N-(3-chloro-4-fluorophenyl)-7'-methyl-1-(2-oxo-2-(((R)-1,1,1-trifluoropropan-2-yl)amino)acetyl)-2'H,4'H,7'H-spiro[pyrrolidine-3,3'-pyrrolo[3,4-b][1,4,5]oxathiazepine]-6'-carboxamide 1',1'-dioxide] | < 500
6 | C[C@@H](NC(=O)C(=O)N1CC[C@@]2(COc3c(c(Cl)n(C)c3C(=O)Nc3ccc(F)c(C(F)F)c3)S(=O)(=O)N2)C1)C(F)(F)F [Example E29, (S)-8'-chloro-N-(3-(difluoromethyl)-4-fluorophenyl)-7'-methyl-1-(2-oxo-2-(((R)-1,1,1-trifluoropropan-2-yl)amino)acetyl)-2'H,4'H,7'H-spiro[pyrrolidine-3,3'-pyrrolo[3,4-b][1,4,5]oxathiazepine]-6'-carboxamide 1',1'-dioxide] | < 500
7 | Cn1cc2c(c1C(=O)Nc1ccc(F)c(C(F)F)c1)OC[C@@]1(CCN(C(=O)C(=O)NC(C)(C)C(F)(F)F)C1)NS2(=O)=O [Example E28, (S)-N-(3-(difluoromethyl)-4-fluorophenyl)-7'-methyl-1-(2-oxo-2-((1,1,1-trifluoro-2-methylpropan-2-yl)amino)acetyl)-2'H,4'H,7'H-spiro[pyrrolidine-3,3'-pyrrolo[3,4-b][1,4,5]oxathiazepine]-6'-carboxamide 1',1'-dioxide] | < 500
8 | C[C@@H](NC(=O)C(=O)N1CCC2(CC1)COc1c(c(Cl)n(C)c1C(=O)Nc1ccc(F)c(Cl)c1)S(=O)(=O)N2)C(F)(F)F [Example E30, (R)-8'-chloro-N-(3-chloro-4-fluorophenyl)-7'-methyl-1-(2-oxo-2-((1,1,1-trifluoropropan-2-yl)amino)acetyl)-2'H,4'H,7'H-spiro[piperidine-4,3'-pyrrolo[3,4-b][1,4,5]oxathiazepine]-6'-carboxamide 1',1'-dioxide] | < 500
9 | Cn1cc2c(c1C(=O)Nc1ccc(F)c(Cl)c1)OC[C@@]1(CCN(C(=O)C(=O)NC(C)(C)C(F)(F)F)C1)NS2(=O)=O [Example E26, (S)-N-(3-chloro-4-fluorophenyl)-7'-methyl-1-(2-oxo-2-((1,1,1-trifluoro-2-methylpropan-2-yl)amino)acetyl)-2'H,4'H,7'H-spiro[pyrrolidine-3,3'-pyrrolo[3,4-b][1,4,5]oxathiazepine]-6'-carboxamide 1',1'-dioxide] | < 500
10 | C[C@@H](NC(=O)C(=O)N1CC[C@]2(COc3c(c(Cl)n(C)c3C(=O)Nc3ccc(F)c(C(F)F)c3)S(=O)(=O)N2)C1)C(F)(F)F [Example E34, (R)-8'-chloro-N-(3-(difluoromethyl)-4-fluorophenyl)-7'-methyl-1-(2-oxo-2-(((R)-1,1,1-trifluoropropan-2-yl)amino)acetyl)-2'H,4'H,7'H-spiro[pyrrolidine-3,3'-pyrrolo[3,4-b][1,4,5]oxathiazepine]-6'-carboxamide 1',1'-dioxide] | < 500
11 | C[C@@H](NC(=O)C(=O)N1CC2(COc3c(c(Cl)n(C)c3C(=O)Nc3ccc(F)c(Cl)c3)S(=O)(=O)N2)C1)C(F)(F)F [Example E31, (R)-8'-chloro-N-(3-chloro-4-fluorophenyl)-7'-methyl-1-(2-oxo-2-((1,1,1-trifluoropropan-2-yl)amino)acetyl)-2'H,4'H,7'H-spiro[azetidine-3,3'-pyrrolo[3,4-b][1,4,5]oxathiazepine]-6'-carboxamide 1',1'-dioxide] | < 500
12 | C[C@@H](NC(=O)C(=O)N1CC[C@]2(COc3c(cn(C)c3C(=O)Nc3ccc(F)c(Cl)c3)S(=O)(=O)N2)C1)C(F)(F)F [Example E4, (R)-N-(3-chloro-4-fluorophenyl)-7'-methyl-1-(2-oxo-2-(((R)-1,1,1-trifluoropropan-2-yl)amino)acetyl)-2'H,4'H,7'H-spiro[pyrrolidine-3,3'-pyrrolo[3,4-b][1,4,5]oxathiazepine]-6'-carboxamide 1',1'-dioxide] | < 500
13 | C[C@H](NC(=O)C(=O)N1CC[C@]2(COc3c(cn(C)c3C(=O)Nc3ccc(F)c(C(F)F)c3)S(=O)(=O)N2)C1)C(F)(F)F [Example E23, (R)-N-(3-(difluoromethyl)-4-fluorophenyl)-7'-methyl-1-(2-oxo-2-(((S)-1,1,1-trifluoropropan-2-yl)amino)acetyl)-2'H,4'H,7'H-spiro[pyrrolidine-3,3'-pyrrolo[3,4-b][1,4,5]oxathiazepine]-6'-carboxamide 1',1'-dioxide] | < 500
14 | C[C@H](NC(=O)C(=O)N1CC2(COc3c(cn(C)c3C(=O)Nc3ccc(F)c(Cl)c3)S(=O)(=O)N2)C1)C(F)(F)F [Example E16, (S)-N-(3-chloro-4-fluorophenyl)-7'-methyl-1-(2-oxo-2-((1,1,1-trifluoropropan-2-yl)amino)acetyl)-2'H,4'H,7'H-spiro[azetidine-3,3'-pyrrolo[3,4-b][1,4,5]oxathiazepine]-6'-carboxamide 1',1'-dioxide] | < 500
15 | C[C@@H](NC(=O)C(=O)N1CCC2(CC1)COc1c(cn(C)c1C(=O)Nc1ccc(F)c(Cl)c1)S(=O)(=O)N2)C(F)(F)F [Example E7, (R)-N-(3-chloro-4-fluorophenyl)-7'-methyl-1-(2-oxo-2-((1,1,1-trifluoropropan-2-yl)amino)acetyl)-2'H,4'H,7'H-spiro[piperidine-4,3'-pyrrolo[3,4-b][1,4,5]oxathiazepine]-6'-carboxamide 1',1'-dioxide] | < 500
16 | C[C@@H](NC(=O)C(=O)N1CC2(COc3c(cn(C)c3C(=O)Nc3ccc(F)c(Cl)c3)S(=O)(=O)N2)C1)C(F)(F)F [Example E9, (R)-N-(3-chloro-4-fluorophenyl)-7'-methyl-1-(2-oxo-2-((1,1,1-trifluoropropan-2-yl)amino)acetyl)-2'H,4'H,7'H-spiro[azetidine-3,3'-pyrrolo[3,4-b][1,4,5]oxathiazepine]-6'-carboxamide 1',1'-dioxide] | < 500
